Measurements: EP1140110B1, “CLATHRATES OF DEHYDROEPIANDROSTERONE AND CORRESPONDING PHARMACEUTICAL COMPOSITIONS” (Euphar Group S.R.L., priority 1998, dated 2000)

Key:
[1] = Kinetics and metabolism of exogenous DHEA (100 mg single oral dose, young and elderly male subjects); type: in vivo; settings: 100 mg DHEA single oral dose
Protocol: This first part of the experimentation was carried out with the purpose of verifying the kinetics and processes of sulfoconjugation and bioconversion of DHEA as such administered to male subjects. The said subjects were divided into two groups according to age: one group of 7 young subjects aged between 24 and 32, and one group of 10 elderly subjects, aged between 67 and 86. Each one of these subjects was administered 100 mg of DHEA in a single dose by oral route. At 0.5, 1, 2, 3, 4, 6, 9,12 and 24 hours from administration, the blood levels of DHEA, DHEA sulphate, total testosterone and 17-β-estradiol were determined. The evaluations were carried out using the parameter of the maximum delta (maximum peak reached, from which the basal values were subtracted) and the parameter of the area under the curve (triangulation system).

[2] = general statement in prior art section; cited from earlier work

C[C@]12CC[C@H](O)CC1=CC[C@@H]1[C@@H]2CC[C@]2(C)C(=O)CC[C@@H]12 [DHEA, dehydroepiandrosterone]
DHEA blood level response to administration, elderly versus young subjects [1]: significantly greater in the elderly subjects | DHEA sulphate blood level response to administration, elderly versus young subjects [1]: significantly greater in the elderly subjects | molar ratio between DHEA sulphate and DHEA in the response-to-administration curves, young versus elderly [1]: did not show any significant differences | time of DHEA sulphate blood level peak from administration ([1]; both groups (young and elderly)): approximately two | blood levels of 17-β-estradiol versus placebo ([1]; compared with the testosterone finding (evident only in elderly subjects)): the same phenomenon occurred | difference in profile of the testosterone levels versus placebo ([1]; elderly subjects, two-way ANOVA): statistically evident | profile of the testosterone levels versus placebo ([1]; young subjects): did not undergo any substantial differences | solubility in water [2]: practically insoluble in water
